Assay results: patent US20230406860A1, “HETEROCYCLIC SPIRO COMPOUNDS AND METHODS OF USE” (AMGEN INC., priority 2020, published 2023)

Tests used:
[1] = tested on: extracellular signal-regulated kinase (ERK); details: preclinical studies; cited from earlier work
[2] = tested on: A549 (human lung carcinoma) cells; test: Cell viability assay (CellTiter-Glo), A549; format: cell-based; details: 72 h
Protocol: (§1) MIA PaCa-2 (human pancreatic carcinoma; ATCC CRL-1420) or A549 (human lung carcinoma; ATCC CCL-185) cells were cultured in RPMI 1640 medium containing 10% fetal bovine serum and 1× penicillin/streptomycin/L-glutamine. Cells were seeded in 384-well plates at a density of 1.67E+04 cells/mL and incubated at 37° C., 5% CO2, overnight. Serially-diluted compound or DMSO was added to the cells, and plates were incubated at 37° C., 5% CO2 for 72 h. Cell viability was measured using a CellTiter-Glo® Luminescent Cell Viability Assay kit (Promega) according to the manufacturer's protocol. The luminescence signal of treated samples was normalized to DMSO control, and data were analyzed using a 4-parameter logistic model to calculate IC50 values.

[3] = tested on: MIA PaCa-2 (human pancreatic carcinoma) cells; test: Cell viability assay (CellTiter-Glo), MIA PaCa-2; format: cell-based; details: 72 h
Protocol: as §1

[4] = molecular target: GDP-bound KRAS protein (aa 1-169), containing both G12C and C118A amino acid substitutions (Homo sapiens, UniProt P01116, C118A/G12C); test: Coupled nucleotide exchange assay (SOS-mediated, AlphaScreen); format: biochemical; details: 2 h compound pre-incubation; read-out: Avg 2 h Coupled exchange IC50
Chain of GDP-bound KRAS protein (aa 1-169), containing both G12C and C118A amino acid substitutions (P01116 1-169 isoform P01116-2 G12C/C118A): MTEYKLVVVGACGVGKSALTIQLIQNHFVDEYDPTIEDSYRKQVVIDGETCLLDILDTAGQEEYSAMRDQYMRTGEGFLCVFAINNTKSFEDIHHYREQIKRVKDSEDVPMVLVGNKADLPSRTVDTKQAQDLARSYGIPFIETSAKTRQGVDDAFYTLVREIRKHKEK
Protocol: Coupled Nucleotide Exchange Assay:
For all subsequent steps, DTT was added to the reaction buffer at a final concentration of 1 mM. […] The assay plates were then read on a plate reader measuring luminescence signal. Signal intensity of compound-containing wells were normalized to DMSO control, and data were analyzed using a 4-parameter logistic model to calculate IC50 values.

Compound	inhibition of ERK phosphorylation [1]	IC50 [2]	IC50 [3]	IC50 [4]
C=CC(=O)N1CCN(c2nc(=O)n(-c3c(C)ccnc3C(C)C)c3nc(-c4c(O)cccc4F)c(F)cc23)[C@@H](C)C1 [AMG 510]	inhibited nearly all detectable phosphorylation			
C=CC(=O)N1CC2(CCN(c3nc(N[C@H](CC(=O)NC)CC(C)C)c4cc(C)ccc4n3)C2)C1 [Example 1-41, (3S)-N,5-dimethyl-3-((6-methyl-2-(2-(2-propenoyl)-2,6-diazaspiro[3.4]octan-6-yl)-4-quinazolinyl)amino)hexanamide]		> 25 µM	1.23 µM	0.779 µM
C=CC(=O)N1CC2(CCN(c3nc(N[C@H](CC(=O)NC)CC(C)C)c4ncc(OC)cc4n3)C2)C1 [Example 1-42, (3S)-3-((7-methoxy-2-(2-(2-propenoyl)-2,6-diazaspiro[3.4]octan-6-yl)pyrido[3,2-d]pyrimidin-4-yl)amino)-N,5-dimethylhexanamide]		> 5 µM	0.296 µM	0.022 µM
C=CC(=O)N1CC2(CCN(c3nc4c(c(N[C@H](Cc5nccs5)CC(C)C)n3)CCC(C)(C)C4)C2)C1 [Example 1-43, 1-(6-(7,7-dimethyl-4-(((2S)-4-methyl-1-(1,3-thiazol-2-yl)-2-pentanyl)amino)-5,6,7,8-tetrahydro-2-quinazolinyl)-2,6-diazaspiro[3.4]octan-2-yl)-2-propen-1-one]		13.5 µM	0.205 µM	0.121 µM
C=CC(=O)N1CC2(CCN(c3nc4c(c(N[C@H](Cc5noc(C)n5)CC(C)C)n3)CCC(C)(C)C4)C2)C1 [Example 1-44, 1-(6-(7,7-dimethyl-4-(((2S)-4-methyl-1-(5-methyl-1,2,4-oxadiazol-3-yl)-2-pentanyl)amino)-5,6,7,8-tetrahydro-2-quinazolinyl)-2,6-diazaspiro[3.4]octan-2-yl)-2-propen-1-one]		21.9 µM	0.316 µM	0.38 µM
C=CC(=O)N1CC2(CCN(c3nc4c(c(N[C@@H](CC(C)C)Cn5cncn5)n3)CCC(C)(C)C4)C2)C1 [Example 1-45, 1-(6-(7,7-dimethyl-4-(((2S)-4-methyl-1-(1H-1,2,4-triazol-1-yl)-2-pentanyl)amino)-5,6,7,8-tetrahydro-2-quinazolinyl)-2,6-diazaspiro[3.4]octan-2-yl)-2-propen-1-one]		> 25 µM	0.985 µM	1.51 µM
C=CC(=O)N1CC2(CCN(c3nc4c(c(N[C@@H](CC(C)C)Cn5cccn5)n3)CCC(C)(C)C4)C2)C1 [Example 1-46, 1-(6-(7,7-dimethyl-4-(((2S)-4-methyl-1-(1H-pyrazol-1-yl)-2-pentanyl)amino)-5,6,7,8-tetrahydro-2-quinazolinyl)-2,6-diazaspiro[3.4]octan-2-yl)-2-propen-1-one]		20.2 µM	0.122 µM	0.162 µM
C=CC(=O)N1CC2(CCN(c3nc4c(c(N[C@H](Cc5ccon5)CC(C)C)n3)CCC(C)(C)C4)C2)C1 [Example 1-48, 1-(6-(7,7-dimethyl-4-(((2S)-4-methyl-1-(1,2-oxazol-3-yl)-2-pentanyl)amino)-5,6,7,8-tetrahydro-2-quinazolinyl)-2,6-diazaspiro[3.4]octan-2-yl)-2-propen-1-one]		15.8 µM	0.049 µM	0.053 µM
C=CC(=O)N1CC2(CCN(c3nc4c(c(N[C@H](Cc5cc(C)no5)CC(C)C)n3)CCC(C)(C)C4)C2)C1 [Example 1-49, 1-(6-(7,7-dimethyl-4-(((2S)-4-methyl-1-(3-methyl-1,2-oxazol-5-yl)-2-pentanyl)amino)-5,6,7,8-tetrahydro-2-quinazolinyl)-2,6-diazaspiro[3.4]octan-2-yl)-2-propen-1-one]		11.6 µM	0.218 µM	0.093 µM
C=CC(=O)N1CC2(CCN(c3nc4c(c(N[C@H](CC(=O)NC)Cc5ccccc5)n3)CCC(C)(C)C4)C2)C1 [Example 1-50, (3S)-3-((7,7-dimethyl-2-(2-(2-propenoyl)-2,6-diazaspiro[3.4]octan-6-yl)-5,6,7,8-tetrahydro-4-quinazolinyl)amino)-N-methyl-4-phenylbutanamide]		> 25 µM	0.587 µM	1.31 µM
C=CC(=O)N1CC2(CCN(c3nc4c(c(N[C@H](Cc5nnc(C)s5)CC(C)C)n3)CCC(C)(C)C4)C2)C1 [Example 1-51, 1-(6-(7,7-dimethyl-4-(((2S)-4-methyl-1-(5-methyl-1,3,4-thiadiazol-2-yl)-2-pentanyl)amino)-5,6,7,8-tetrahydro-2-quinazolinyl)-2,6-diazaspiro[3.4]octan-2-yl)-2-propen-1-one]		> 5 µM	3.54 µM	0.05 µM
C=CC(=O)N1CC2(CCN(c3nc4c(c(N[C@H](Cc5nnc(C)o5)CC(C)C)n3)CCC(C)(C)C4)C2)C1 [Example 1-52, 1-(6-(7,7-dimethyl-4-(((2S)-4-methyl-1-(5-methyl-1,3,4-oxadiazol-2-yl)-2-pentanyl)amino)-5,6,7,8-tetrahydro-2-quinazolinyl)-2,6-diazaspiro[3.4]octan-2-yl)-2-propen-1-one]		> 5 µM	1.41 µM	0.039 µM
C=CC(=O)N1CC2(CCN(c3nc4c(c(N[C@H](Cc5cc(C)on5)CC(C)C)n3)CCC(C)(C)C4)C2)C1 [Example 1-53, 1-(6-(7,7-dimethyl-4-(((2S)-4-methyl-1-(5-methyl-1,2-oxazol-3-yl)-2-pentanyl)amino)-5,6,7,8-tetrahydro-2-quinazolinyl)-2,6-diazaspiro[3.4]octan-2-yl)-2-propen-1-one]		> 5 µM	0.994 µM	0.024 µM
C=CC(=O)N1CC2(CCN(c3nc4c(c(N[C@H](Cc5ncc[nH]5)CC(C)C)n3)CCC(C)(C)C4)C2)C1 [Example 1-54, 1-(6-(4-(((2S)-1-(1H-imidazol-2-yl)-4-methyl-2-pentanyl)amino)-7,7-dimethyl-5,6,7,8-tetrahydro-2-quinazolinyl)-2,6-diazaspiro[3.4]octan-2-yl)-2-propen-1-one]		> 5 µM	1.32 µM	0.049 µM
C=CC(=O)N1CC2(CCN(c3nc4c(c(N[C@H](Cc5c[nH]nn5)CC(C)C)n3)CCC(C)(C)C4)C2)C1 [Example 1-55, 1-(6-(7,7-dimethyl-4-(((2S)-4-methyl-1-(1H-1,2,3-triazol-4-yl)-2-pentanyl)amino)-5,6,7,8-tetrahydro-2-quinazolinyl)-2,6-diazaspiro[3.4]octan-2-yl)-2-propen-1-one]		> 5 µM	1.27 µM	0.057 µM
C=CC(=O)N1CC2(CCN(c3nc(N[C@H](CC(=O)NC)CC(C)C)c4ccncc4n3)C2)C1 [Example 1-56]		> 25 µM	> 5 µM	4.84 µM
C=CC(=O)N1CC2(CCN(c3nc4c(c(N[C@H](Cc5ncco5)CC(C)C)n3)CCCC4)C2)C1 [Example 1-57, 1-(6-(4-(((2S)-4-methyl-1-(1,3-oxazol-2-yl)-2-pentanyl)amino)-5,6,7,8-tetrahydro-2-quinazolinyl)-2,6-diazaspiro[3.4]octan-2-yl)-2-propen-1-one]		17.9 µM	2.49 µM	2.1 µM
C=C(C(=O)N1CC2(CCN(c3nc(N[C@H](CC(=O)NC)CC(C)C)c4ccc(C)cc4n3)C2)C1)C(F)(F)F [Example 1-58, (3S)-N,5-dimethyl-3-((7-methyl-2-(2-(2-(trifluoromethyl)-2-propenoyl)-2,6-diazaspiro[3.4]octan-6-yl)-4-quinazolinyl)amino)hexanamide]		13.5 µM	1.84 µM	0.403 µM
C=CC(=O)N1CC2(CCN(c3nc(N[C@H](CC(=O)NC)CC(C)C)c4ccc(-c5nccs5)cc4n3)C2)C1 [Example 1-59, (3S)-N,5-dimethyl-3-((2-(2-(2-propenoyl)-2,6-diazaspiro[3.4]octan-6-yl)-7-(1,3-thiazol-2-yl)-4-quinazolinyl)amino)hexanamide]		7.86 µM	0.016 µM	0.01 µM
C=CC(=O)N1CC2(CCN(c3nc4c(c(N[C@@H](CC(C)C)C(=O)NC)n3)CCCC4)C2)C1 [Example 1-60, (S)-2-((2-(2-acryloyl-2,6-diazaspiro[3.4]octan-6-yl)-5,6,7,8-tetrahydroquinazolin-4-yl)amino)-N,4-dimethylpentanamide]		17.9 µM	7.06 µM	8.28 µM
